# From article PMC8261488, “Contraceptive progestins with androgenic properties stimulate breast epithelial cell proliferation” (EMBO Molecular Medicine, 2021)
# Several values for one entry are separate records, joined by “and”; a condition that tells them apart may be missing. Equal entries are not always repeated.
# What was measured:
# Rankl [1] = assay: Rankl induction by R5020 or LNG in mouse mammary organoids co-treated with AR antagonists; assay type: cell-based; conditions: 6 h
# Method: (§1) Enzalutamide (100 µM) abrogated Rankl induction by R5020 (P < 0.05) but had no effect on Wnt4 induction (Fig 1H).
# (§2) Animal experiments were performed in accordance with protocol approved by the Service de la Consommation et des Affaires vétérinaires of Canton de Vaud (VD 1865.3, VD 1865.4). NOD. Cg‐Prkdc^scid Il2rg^tm1Wjl/SzJ mice (Charles River), BalbC, and C57Bl6 breeders were purchased from Jackson Laboratories. Mammary glands were isolated from 18‐ to 35‐week‐old mice, lymph nodes removed, minced with surgical blades, and digested in DMEM/F12, 1% penicillin/streptomycin B with collagenase A 0.25 mg/ml (Roche). Tissue was concomitantly stimulated with hormones for 1, 2, or 6 h and centrifuged at 652 g for 5 min. Fat was removed, and pellet containing organoids washed with phosphate‐buffered saline (PBS), resuspended 5 min in 3 ml red cell blood lysis buffer and washed twice with PBS.
# (§3) Human breast microstructures and mouse organoids were homogenized in Trizol (Invitrogen). Aqueous phase containing RNA was chloroform extracted and processed with miRNeasy extraction kit (Qiagen). cDNA was synthesized using random p(dN)6 primers (Roche) and MMLV reverse transcriptase (Invitrogen). SYBR Green PCR Core Reagent System (Qiagen) was used for semi‐quantitative real time (RT‐PCR) using the following primers.
# Wnt4 [2] = assay: Wnt4 induction by R5020 or LNG in mouse mammary organoids co-treated with AR antagonists; assay type: cell-based; conditions: antagonist 100 µM, 6 h, C57Bl6-derived organoids
# Method: as §1, §2, §3
# HBECs [3] = assay: In vivo growth of HBEC xenografts treated with LNG with or without enzalutamide; parameters: species or system human; conditions: enzalutamide 30 mg/kg intraperitoneally 3 times/week, the 2 LNG-responsive PDXs
# Method: Mice were anesthetized by intraperitoneal injection with 10 mg/kg xylazine and 90 mg/kg ketamine (Graeub) and injected intraductally with 10 μl cell suspension per gland. […] After 3–10 weeks, when bioluminescence from individual glands reached 10^7 total flux (p/s/cm2/sr), animals were assigned to different treatment groups and hormone pellets implanted subcutaneously. Enzalutamide (Selleckchem, Catalog No. S1250) dissolved in 15% DMSO in PEG300 was injected intraperitoneally 3 times/week at 30 mg/kg.
# KLK3 = KLK3 mRNA in xenografted HBECs by RT-PCR with human-specific primers; assay type: in vivo; conditions: 21 days pellets (Fig 5M)
# Excerpt: Consistent with AR and PR sharing a common hormone response element (Claessens et al, 1996), KLK3 was induced upon progestin stimulation. […] This is in agreement with previous findings that KLK3 expression is under the control of both androgens and progestins in T47D cells (Zarghami et al, 1997).
# (§4) Next, we sought for a readout of in vivo cell proliferation different from radiance. […] Given that MKI67 expression could replace the luciferase measurements as a readout, we used a modified experimental setup for a second round of experiments. We derived HBECs from viably frozen mammoplasty samples (Appendix Table S3) and engrafted them to different mammary glands of NSG females without viral infection. Four months later, the 24 recipient females, each engrafted with 5 different mammoplasties received pellets containing either vehicle, progesterone, or 1 of 6 progestins for 21 days. At sacrifice, xenografted glands were histologically sectioned and cell proliferation was quantified using co‐IF with anti‐MKI67 and anti‐hECAD antibodies. For one of the mammoplasties, we were able to obtain measurements for all experimental conditions (Fig 5I). […] For the remaining mammoplasties, between 3 and 8 different experimental conditions were successfully quantified (Appendix Table S4). […] CPA (P < 0.0001) decreased proliferation, whereas CMA and DSP had no effect (Fig 5K). As AR signaling increases AR protein levels, we performed co‐IF for AR and hECAD as another means to assess AR signaling activity.
# as §3
# HBECs [4] = assay: In vivo growth of intraductal HBEC xenografts measured by radiance; conditions: 60 days of treatment, subcutaneous pellets
# Excerpt: To compare the effects of progesterone and different progestins on HBECs in vivo, we infected single cell suspensions obtained from fresh reduction mammoplasty specimens with GFP‐luciferase2‐expressing lentiviruses. The infected cell mixture was grafted intraductally to up to 5 glands of as many recipients as possible. The engraftment and growth of the xenografted cells were monitored weekly by in vivo imaging. When radiance reached > 10E07 on average per mammary gland, 60‐day‐release pellets were implanted subcutaneously, usually within 3–10 weeks after cell injection. At sacrifice, blood was collected and plasma levels of the administered compounds as well as endogenous steroid hormones were determined by liquid chromatography‐mass spectrometry (LC‐MS) (Laszlo et al, 2019).
# Next, the in vivo growth of HBEC xenografts stimulated with progesterone or different progestins was analyzed. […] In addition, the fold change radiance of treated versus untreated samples at endpoint was calculated (Fig 5A–C).
# (§6) Mice were anesthetized by intraperitoneal injection with 10 mg/kg xylazine and 90 mg/kg ketamine (Graeub) and injected intraductally with 10 μl cell suspension per gland. Bioluminescence imaging was performed as described (Sflomos et al, 2016). After 3–10 weeks, when bioluminescence from individual glands reached 10^7 total flux (p/s/cm2/sr), animals were assigned to different treatment groups and hormone pellets implanted subcutaneously. Enzalutamide (Selleckchem, Catalog No. S1250) dissolved in 15% DMSO in PEG300 was injected intraperitoneally 3 times/week at 30 mg/kg.
# Pellets were prepared by mixing the required amount of part A, MP3745/E81949 and part B, MP3744/E81950 of low consistency silicon elastomer (MED‐4011) and hormone powder to homogeneity. Mix was transferred to a syringe and incubated at 37°C overnight. The silicon‐hormone mass was removed from the syringe and cut to pieces, as described (Duss et al, 2007). The original protocol was adapted for different doses as described below.
# human breast epithelium = conditions: female, mouse, in vivo, 8 months
# Method: All the engrafted glands were processed for histological analysis and H&E stained.
# as §6
# Wnt4 [5] = assay: Wnt4 transcript levels by RT-PCR in mouse mammary organoids stimulated ex vivo; assay type: cell-based; conditions: for Wnt4 transcript levels over vehicle-treated control: BalbC females, 6 h of stimulation
# Method: (§5) Next, we stimulated mouse mammary organoids derived from several BalbC females with R5020 or different progestins (Fig 1A). […] No significant change in Rankl and Wnt4 transcript levels was detected during the first 2 h (Appendix Fig S1D). By 6 h of R5020 stimulation, Rankl and Wnt4 transcript levels increased 22.4 and 5.8‐fold over the vehicle‐treated control, respectively.
# as §2, with “Tissue was concomitantly stimulated with hormones for 1, 2, or 6 h and centrifuged at 652 g for 5 min.” left out
# as §3
# HBECs [6] = assay: MKI67/Ki67 expression in xenografted HBECs; assay type: in vivo, human; conditions: 21 days pellets; for cell proliferation (KI67 and hECAD double+ cells), overall analysis: HBECs from 11 different patients; for cell proliferation (KI67 and hECAD double+ cells): one mammoplasty (M310)
# Excerpt: as §4
# Tissues were fixed for 2 h at room temperature in 4% paraformaldehyde and paraffin‐embedded. Dewaxed and rehydrated paraffin sections were pretreated in 10 mM Na citrate (pH 6.0) at 95° for 20 min. Blocking was performed with 1% BSA for 60 min. Primary antibodies used were as follows: Ki67 (rabbit α‐Ki67, clone Sp6, Spring Amsbio, dilution 1:200), ER (rabbit α‐ER, clone Sp1, Zytomed RTU), PR (rabbit α‐PR, clone 1E2, Ventana RTU), AR (rabbit α‐AR, clone SP107, Thermo Fisher, diluted 1:200), CK7 (rabbit α‐CK7, clone Sp52, Abcam, diluted 1:500), CK19 (mouse KS19.2 (Z105.6), American Research Products Inc. (diluted 1:50), and mouse α‐ECAD (clone G‐10, sc‐8426, diluted 1:100). For IHC, chromogenic revelation was performed with ChromoMap DAB kit (Roche Diagnostics, Switzerland) and sections were counterstained with Mayer’s hematoxylin. For fluorescence microscopy, nuclei were counterstained with DAPI (Sigma). IHC for ER, PR, and AR was performed on Discovery Ventana ULTRA (44). IHC images were acquired on Leica DM 2000 with Leica DFC450 C camera. IF images were acquired on Zeiss LSM700 confocal microscope. Slides were scanned with Olympus VS120‐L100 slide scanner with 20×/0.75 objective and Pike F505 C Color camera. Images were loaded into QuPath using the BioFormats extension (Bankhead et al, 2017).
# AR = test system: AR; parameters: method as in earlier work; conditions: various assays, ref Fuhrmann et al, 1995, Muhn et al, Bouchard, 2005, Mishell, 2008, Schneider et al, 2009, Africander et al, 2011, Louw‐du Toit et al, 2017; cited from earlier work
# Rankl [7] = assay: Rankl transcript levels by RT-PCR in mouse mammary organoids stimulated ex vivo; assay type: cell-based; conditions: for Rankl transcript levels over vehicle-treated control: BalbC females, 6 h of stimulation
# Method: as §5
# as §2, with “Tissue was concomitantly stimulated with hormones for 1, 2, or 6 h and centrifuged at 652 g for 5 min.” left out
# as §3
# [8] = test system: endogenous hormone levels in mice; assay: Endogenous steroid hormone plasma levels in treated host mice by LC-MS; assay type: in vivo, mouse; conditions: xenografted NSG females with pellets
# Excerpt: Next, we assessed whether progesterone and progestins differentially affected endogenous hormone levels in mice. Plasma 17‐β‐estradiol levels were not affected by any of the treatments (Fig 4H). […] Plasma testosterone levels were not altered by any treatment with the exception of DSP, which decreased them (Fig 4H). Thus, prolonged exposures to progestins differentially affect endogenous progesterone plasma levels and DSP decreases testosterone plasma levels in host mice.
# [9] = antagonist 100 µM, C57Bl6-derived organoids
# [10] = BalbC-derived organoids, 24 h of stimulation
smiles,measurement,setting,value
CNC(=O)c1ccc(N2C(=S)N(c3ccc(C#N)c(C(F)(F)F)c3)C(=O)C2(C)C)cc1F [enzalutamide],effect of AR antagonist on Rankl induction,"Rankl [1]; antagonist 10 µM, n = 3",failed to reach significance
same,effect of AR antagonist on Rankl induction by LNG,Rankl [1]; [9],significantly reduced
same,effect of AR antagonist on Rankl induction by R5020,Rankl [1]; [9],abrogated
same,effect of AR antagonist on Wnt4 induction by LNG,Wnt4 [2],not affected
same,effect of AR antagonist on Wnt4 induction by R5020,Wnt4 [2],no effect
same,effect of enzalutamide on LNG-induced proliferation,HBECs [3],decreased the proliferative effects of LNG
"C#C[C@]1(O)CC[C@H]2[C@@H]3CCC4=CC(=O)CC[C@@H]4[C@H]3C(=C)C[C@@]21CC [DSG, 3‐ketodesogestrel]",KLK3 transcripts levels,KLK3,increased
same,growth (course of radiance) of engrafted HBECs versus control,HBECs [4],increased growth
same,relative radiance at endpoint over control (FC),HBECs [4],2 fold and 2.0 fold
same,morphologic changes in xenografts (H&E),human breast epithelium,3 or 4 grafts showed diffuse and in some cases marked acinar proliferation
same,Wnt4 transcript levels over vehicle-treated control,Wnt4 [5],8.5 fold
same,Wnt4 transcript induction,Wnt4 [5]; [10],32.2 fold
same,Wnt4 transcript induction,"Wnt4 [5]; C57Bl/6 mice, 6 h, 20 nM",4.2 fold
same,"cell proliferation (KI67 and hECAD double+ cells), overall analysis",HBECs [6],increased
same,cell proliferation (KI67 and hECAD double+ cells),HBECs [6],significantly increased
same,androgenic / anti-androgenic activity,AR,androgenic activity
same,Rankl transcript levels over vehicle-treated control,Rankl [7],22.3 fold
same,Rankl transcript induction,Rankl [7]; [10],177.2 fold
same,Rankl transcript induction,"Rankl [7]; C57Bl/6 mice, 6 h, 20 nM",15.5 fold
same,endogenous progesterone plasma levels (estrous cycle-related variation),[8],suppressed
"C#C[C@]1(O)C=C[C@H]2[C@@H]3CCC4=CC(=O)CC[C@@H]4[C@H]3CC[C@@]21CC [GSN, gestodene]",KLK3 transcripts levels,KLK3,increased
same,growth (course of radiance) of engrafted HBECs versus control,HBECs [4],increased growth
same,relative radiance at endpoint over control (FC),HBECs [4],2.2 fold
same,morphologic changes in xenografts (H&E),human breast epithelium,3 or 4 grafts showed diffuse and in some cases marked acinar proliferation
same,Wnt4 transcript levels over vehicle-treated control,Wnt4 [5],4.9 fold
same,Wnt4 transcript induction,Wnt4 [5]; [10],33.5 fold
same,Wnt4 transcript induction,"Wnt4 [5]; C57Bl/6 mice, 6 h, 20 nM",3.6 fold
same,"cell proliferation (KI67 and hECAD double+ cells), overall analysis",HBECs [6],increased
same,cell proliferation (KI67 and hECAD double+ cells),HBECs [6],significantly increased
same,androgenic / anti-androgenic activity,AR,androgenic activity
same,Rankl transcript levels over vehicle-treated control,Rankl [7],18.2 fold
same,Rankl transcript induction,Rankl [7]; [10],617.2 fold
same,Rankl transcript induction,"Rankl [7]; C57Bl/6 mice, 6 h, 20 nM",21.5 fold
same,endogenous progesterone plasma levels (estrous cycle-related variation),[8],suppressed
